Laboratory results taken from patent US6340698B1, “Antifungal solutions” (priority 1999, dated 2002).

Tests used:
Format in all cases: physicochemical
Solubility in water = assay: Solubility in water
[1] = Solubility in strong acids (glacial acetic acid, concentrated hydrochloric acid)
Excerpt: For example, 1 g of free itraconazole can be dissolved in about 3 g of glacial acetic acid or about 3 to 4 g of concentrated hydrochloric acid (i.e. 36-38% HCl in water).

[2] = Dilution with water of a solution in strong acid; conditions: solution in strong acid diluted with water to weaken the acid
Protocol: However, strongly acidic solutions are unsuitable for oral administration, and if a solution of itraconazole or saperconazole in strong acid is diluted with water to weaken the acid, the itraconazole or saperconazole precipitates.

Structure (SMILES)	solubility in water (Solubility in water)	solubility in strong acids [1]	behaviour when solution in strong acid is diluted with water [2]
CCC(C)n1ncn(-c2ccc(N3CCN(c4ccc(OCC5COC(Cn6cncn6)(c6ccc(Cl)cc6Cl)O5)cc4)CC3)cc2)c1=O (centres unmarked) [itraconazole, Itraconazole]	practically insoluble in water	soluble in strong acids	–
CCC(C)n1ncn(-c2ccc(N3CCN(c4ccc(OC[C@H]5CO[C@](Cn6cncn6)(c6ccc(F)cc6F)O5)cc4)CC3)cc2)c1=O (some centres unmarked) [saperconazole]	practically insoluble in water	soluble in strong acids	precipitates
